Source: patent publication US11371097B2, “Articles for diagnosis of liver fibrosis” (THE GOVERNMENT OF THE UNITED STATES, as represented by THE …, priority 2015, dated 2022)
Values joined by “and” are separate entries in the source; they are usually repeats but may differ in a detail not shown here. Equal values may be shown once. Read-outs that look alike come from different tables or passages of the source.

Key:
[1] = tested on: 67 genes on the fibrosis gene panel; experiment: Multiplexed fibrosis gene panel (QuantiGene 2.0 Plex / Bioplex) on liver RNA
Protocol: mRNA is isolated and purified from lysed tissue biopsy specimens. The target mRNA is incubated with beads conjugated to capture probes (each probe is an oligonucleotides specific for one of the genes in the panel). The target is hybridized to the probe by a capture extender-capture probe interaction. Specific mRNA targets hybridize overnight to the respective beads. The signal is amplified by incubating mRNA-capture probe pairs by affixing an amplifier affixed to a biotinylated label probe. Streptavidin-conjugated phycoerythrin (SAPE) is bound to the biotinylated probe to amplify the signal. The signal is detected and quantified by Bioplex suspension array instrumentation, which measures the SAPE fluorescence signal proportional to the amount of mRNA transcripts captured by the bead.
Candidate genes identified by co-expression modules and pathway/network approaches were fabricated into a custom gene panel using a commercial source (the QuantiGene 2.0 Plex assay, Affymetrix, Santa Clara, Calif.). A total of 71 genes plus 3 housekeeping genes were selected. Using 150 ng RNA input, samples were processed following manufacturer's instructions for purified RNA with use of the HandHeld Magnetic Plate Washer. Plates were read immediately following the final wash using the BioPlex 200 instrument (BioRad, Hercules, Calif.). The following parameters were set on the BioPlex instrument: sample size=100 μL; DD Gate=5,000-25,000; Timeout=45 sec; Bead Event/Bead Region=100.
For each sample, the average signal intensity was determined as recommended by the manufacturer. Duplicates were averaged. The average background signal for each gene was subtracted. Assay limit of detection was determined by adding three standard deviations of assay background signals to the average intensity of the background control wells. All intensities lower than the limit of detection for each probe was set to one unit above the probe's limit of detection. Probes with all intensities below the assay limit of detection were removed from the final analysis. The test gene signal was divided by the average intensities of the three normalization genes (Gapdh, Hprt1, Ppib). For each test gene, the fold change was calculated by dividing the normalized value for the treated samples by the normalized value of the vehicle-treated controls. Fold changes were plotted as log2 fold change. Gene expression data were imported into Partek Genomics Suite 6.0 (Partek, Inc., St. Louis, Mo.). Principal component analysis was used for multivariate interpretation to determine sources of variation across sample groups (Joliffe I T, Morgan B J. Principal component analysis and exploratory factor analysis. Statistical methods in medical research 1992; 1(1):69-95). Differentially expressed genes were determined by analysis of variance (ANOVA) with contrasts, setting the ANOVA factors as toxicant and the histopathological endpoint of fibrosis (any score >0). ANOVA variables were fibrosis score 0 (none) vs. score of >0 (minimal, mild, moderate, and marked). For hierarchical biclustering, differentially expressed genes were standardized by setting the genes expressed to a mean of zero and scaling to a standard deviation of one. Euclidean geometry was used to cluster row and column dissimilarity using a method of average linkage.
Chemical-dose groups were down-selected based on histopathology to conform to the 96-well assay format of the multiplexed panel of presumptive fibrosis genes. Three of the four dose groups were evaluated for the fibrogenic chemicals allyl alcohol and 4,4′-methylenedianiline. A single dose was selected with group-matched vehicle controls for each of the remaining chemicals. […] The highest dose of bromobenzene was selected because the vacuolation pathology was only observed at this dose.
Isolated liver RNA was incubated with microbead-bound capture probes specific for the 71 presumptive fibrogenic genes and three housekeeping normalization genes.

[2] = type: in vivo, Male Sprague-Dawley rats
Protocol: (§1) In vivo rat experiments were performed at Integrated Laboratory Systems (ILS, Research Triangle Park, NC). ILS's Institutional Animal Care and Use Committee approved all experimental procedures. Research was conducted in compliance with the Animal Welfare Act, and other Federal statutes and regulations relating to animals and experiments involving animals and adheres to principles stated in the “Guide for Care and Use of Laboratory Animals” as prepared by the Committee on Care and Use of Laboratory Animals of the Institute of Laboratory Animal Resources, National Research Council in facilities that are fully accredited by the Association for Assessment and Accreditation of Laboratory Animal Care, International. Male Sprague-Dawley rats (CD IGS [CRL:CD (SD)]) were purchased from Charles River Laboratories (Stone Ridge, N.Y.). Rats weighing 215-245 g (8 weeks old) were used. Briefly, rats were housed two per cage with a rat tunnel enrichment device (Bio-Serve, Frenchtown, N.J.). Rats were fed a Purina Rodent Diet No. 5002 (Ralston Purina Co., St. Louis, Mo.), supplied ad libitum. Animals received reverse osmosis-treated tap water (City of Durham, N.C.) ad libitum, which was changed at least once weekly. Controls in the animal rooms were set to maintain temperatures between 20-In vivo rat experiments were performed at Integrated Laboratory Systems (ILS, Research Triangle Park, NC). ILS's Institutional Animal Care and Use Committee approved all experimental procedures. Research was conducted in compliance with the Animal Welfare Act, and other Federal statutes and regulations relating to animals and experiments involving animals and adheres to principles stated in the “Guide for Care and Use of Laboratory Animals” as prepared by the Committee on Care and Use of Laboratory Animals of the Institute of Laboratory Animal Resources, National Research Council in facilities that are fully accredited by the Association for Assessment and Accreditation of Laboratory Animal Care, International. Male Sprague-Dawley rats (CD IGS [CRL:CD (SD)]) were purchased from Charles River Laboratories (Stone Ridge, N.Y.). Rats weighing 215-245 g (8 weeks old) were used. Briefly, rats were housed two per cage with a rat tunnel enrichment device (Bio-Serve, Frenchtown, N.J.). Rats were fed a Purina Rodent Diet No. 5002 (Ralston Purina Co., St. Louis, Mo.), supplied ad libitum. Animals received reverse osmosis-treated tap water (City of Durham, N.C.) ad libitum, which was changed at least once weekly. Controls in the animal rooms were set to maintain temperatures between 20-25° C. with a relative humidity of 30-70% and a 12-hour light/12-hour dark cycle, lights on at 6:00 AM. Clinically healthy animals were assigned to dose groups using a procedure that stratifies animals across groups by body weight such that mean body weight of each group was not statistically different from any other group using analysis of variance (Statistical Analysis System version 9.2, SAS Institute, Cary, N.C.). Animals were dosed by oral gavage for five consecutive days (+10 minutes from the previous day's dose administration time). Volume was based upon daily body weight.
(§2) Animals were observed cageside one hour following daily dose administration, then 1-2 times per day during dosing regimens. Body weights were measured daily prior to dose administration, and prior to euthanasia. Twenty-four hours after the final dose administration, animals were anesthetized with isoflurane then euthanized by exsanguination followed by decapitation. Livers were harvested at necropsy and weighed to within 0.1 g. One half of the left lobe of the liver was fixed in 10% formalin. The remaining half of the left lobe of the liver was flash frozen in liquid nitrogen, then stored below −70° C. Liver specimens were frozen in less than three minutes from time of death.

liver = type: in vivo, Male Sprague-Dawley rats; conditions: for Periportal fibrosis (Masson's trichrome): 162 mg/kg/day, five-day oral administration;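 on Cytoplasmic Alteration: Severity grades from None 0% through Minimal Mild Moderate to Marked over 80% tissue affected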;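 on Inflammation: Severity grades from None 0% through Minimal Mild Moderate to Marked over 80% tissue affected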;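 on Vacuolation: Severity grades from None 0% through Minimal Mild Moderate to Marked over 80% tissue affected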
Protocol: All chemical compounds were diluted in corn oil (CAS No. 8001-30-7) (MP Biomedicals, LLC (Solon, Ohio)). The dose volume was 5 mL/kg. Doses were selected based on doses published in the DrugMatrix database, the National Toxicology Program reports, and ATSDR reports.
as §1
as §2, with “The remaining half of the left lobe of the liver was flash frozen in liquid nitrogen, then stored below −70° C. Liver specimens were frozen in less than three minutes from time of death.” left out

[3] = 4,4′-MDA 59.7 mg/kg, animals 93-96
[4] = 4,4′-MDA 162 mg/kg, animals 97-100
[5] = 4,4′-MDA 22 mg/kg, animals 89-92

Nc1ccc(Cc2ccc(N)cc2)cc1 [4,4′-methylenedianiline]
Anxa2 differential expression [1, 3]: 2.439 and 1.755 and 2.514
Arpc1b differential expression [1, 3]: 1.147 and 1.069 and 1.373
C1qb differential expression [1, 3]: 0.893 and 0.937 and 1.469
CD53 differential expression [1, 3]: 0.950 and 1.045 and 1.560
Capg differential expression [1, 3]: 1.169 and 1.723 and 2.026
Ccl2 differential expression [1, 3]: 1.483 and 1.928 and 1.705
Ctgf differential expression [1, 3]: 1.026 and 0.691 and 1.013
Cxcl16 differential expression [1, 3]: 1.969 and 1.196 and 2.174
Cyba differential expression [1, 3]: 1.216 and 1.165 and 2.041
Dsc2 differential expression [1, 3]: 0.258 and 0.244 and 0.474
Fam102b differential expression [1, 3]: 0.577 and 0.939 and 0.845
Fam105a differential expression [1, 3]: 1.236 and 1.186 and 1.900
Fxyd5 differential expression [1, 3]: 1.025 and 0.916 and 1.613
Gpnmb differential expression [1, 3]: 1.876 and 1.911 and 3.162
Itga1 differential expression [1, 3]: 1.064 and 1.196 and 1.743
Itgb2 differential expression [1, 3]: 0.709 and 1.138 and 1.216
Lame2 differential expression [1, 3]: 1.485 and 0.755 and 1.416
Lbp differential expression [1, 3]: 2.023 and 1.422 and 2.026
Lgals3 differential expression [1, 3]: 1.931 and 2.085 and 2.575
Pkm2 differential expression [1, 3]: 1.314 and 1.491 and 2.389
Plau differential expression [1, 3]: 0.941 and 0.957 and 1.332
RT1-DMa differential expression [1, 3]: 1.381 and 2.022 and 2.522 and 1.938
RT1-Da differential expression [1, 3]: 1.431 and 2.375 and 2.640
Serpine1 differential expression [1, 3]: 1.151 and 1.305 and 1.475
TagIn2 differential expression [1, 3]: 1.404 and 1.169 and 1.971
Timp1 differential expression [1, 3]: 1.871 and 1.153 and 2.099
RT1-DMa differential expression [1, 4]: 1.970 and 1.713 and 2.157 and 1.814
Hierarchical biclustering of log2 fold-changes in panel gene expression ([1]; liver, 67 genes): clustered together
Body weight gain over the five experimental dosing days ([2]; dose groups): decrease in body weight gain
Body weight change over the five-day exposure interval ([2]; highest dose(s)): gained less weight over the five-day exposure interval than their low-dose counterparts
Periportal fibrosis (Masson's trichrome) (liver): periportal fibrosis
Periportal fibrosis (Masson's trichrome) (liver; listed as 4,4′-methylenediani line): Perioportal fibrosis was confirmed
Bile Duct Hyperplasia and Fibroplasia (liver; [5]): 0
Inflammation (liver; [5]): 0
Necrosis (liver; [5]): 0
Vacuolation (liver; [5]): 0
Bile Duct Hyperplasia and Fibroplasia (liver; [3]): 2 and 3
Inflammation (liver; [3]): 2 and 3
Vacuolation (liver; [3]): 0
Bile Duct Hyperplasia and Fibroplasia (liver; [4]): 3 and 2
Cytoplasmic Alteration (liver; [4]): 2 and 3
Inflammation (liver; [4]): 2
Necrosis (liver; [4]): 2 and 1
Vacuolation (liver; [4]): 0
Combined histopathological scores as percent of animals with pathology (liver; across dose groups, five days (figure legend)): dose-dependent increase in severe pathology
Fibrosis histopathology (liver; low-dose (carbon tetrachloride: all doses)): without fibrosis
Degree of fibrosis (liver; oral gavage five days, across doses): dose-dependent increase in the degree of fibrosis
Histopathology: bile duct hyperplasia, fibrosis, necrosis (liver; oral gavage five days, high doses): caused bile duct hyperplasia comorbid with fibrosis and necrosis
